Laboratory results published in patent publication US7608577B2, “Peptidyl ketones as inhibitors of DPIV” (OSI Pharmaceuticals, Inc., priority 2001, dated 2009).
pIC50: −log10 of the molar value.

Key:
[1] = molecular target: T1, Dipeptidyl peptidase I (DP I, cathepsin C) (Rattus norvegicus, UniProt P80067); assay: Cross reacting enzymes: dipeptidyl peptidase I; type: biochemical; details: MES buffer pH5.6, 30° C.
T1 construct: purchased Qiagen GmbH, Hilden, Germany
T1 sequence (P80067 25-462): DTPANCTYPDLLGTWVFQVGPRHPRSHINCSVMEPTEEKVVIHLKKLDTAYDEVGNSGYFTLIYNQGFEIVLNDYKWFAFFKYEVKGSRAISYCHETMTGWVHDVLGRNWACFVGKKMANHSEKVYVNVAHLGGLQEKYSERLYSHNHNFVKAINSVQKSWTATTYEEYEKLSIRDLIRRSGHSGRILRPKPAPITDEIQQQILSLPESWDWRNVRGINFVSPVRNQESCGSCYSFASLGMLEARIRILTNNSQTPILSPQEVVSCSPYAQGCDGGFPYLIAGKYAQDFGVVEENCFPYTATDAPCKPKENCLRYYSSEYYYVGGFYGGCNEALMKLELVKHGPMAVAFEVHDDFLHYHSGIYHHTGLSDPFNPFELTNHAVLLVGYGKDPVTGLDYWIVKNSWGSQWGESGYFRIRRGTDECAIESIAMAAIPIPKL
Description: DP I or cathepsin C is a lysosomal cysteine protease which cleaves off dipeptides from the N-terminus of their substrates (Gutman, H. R. & Fruton, J. S., 1948, J. Biol: Chem., 174, 851-858). It is classified as a cysteine protease. The enzyme used was purchased from Qiagen (Qiagen GmbH, Hilden, Germany). In order to get a fully active enzyme, the enzyme was diluted 1000 fold in MES buffer pH5.6 (40 mM MES, 4 mM DTT, 4 mM KCl, 2 mM EDTA, 0.015% Brij) and pre-incubated for 30 min at 30° C.
50 μl solution with the test compounds in a concentration range of 1*10^−5 M-1*10^−7 M was admixed with 110 μl buffer-enzyme-mixture. The assay mixture was pre-incubated at 30° C. for 15 min. After pre-incubation, 100 μl histidylseryl-βnitroaniline (2*10^−5M) was added and measurement of yellow color development due to β-nitroaniline release was performed at 30° C. and […] for 10 min, using a plate reader (HTS7000 plus, Applied Biosystems, Weiterstadt, Germany).
The IC 50-values were calculated using Graphit 4.0.15 (Erithacus Software, Ltd., UK).

[2] = molecular target: T2, Acylamino acid-releasing enzyme (AARE) (Homo sapiens, UniProt P13798); assay: Cross reacting enzymes: AARE; type: biochemical; details: substrate Acetyl-Met-AMC, pH 7.2
T2 sequence (P13798 1-732): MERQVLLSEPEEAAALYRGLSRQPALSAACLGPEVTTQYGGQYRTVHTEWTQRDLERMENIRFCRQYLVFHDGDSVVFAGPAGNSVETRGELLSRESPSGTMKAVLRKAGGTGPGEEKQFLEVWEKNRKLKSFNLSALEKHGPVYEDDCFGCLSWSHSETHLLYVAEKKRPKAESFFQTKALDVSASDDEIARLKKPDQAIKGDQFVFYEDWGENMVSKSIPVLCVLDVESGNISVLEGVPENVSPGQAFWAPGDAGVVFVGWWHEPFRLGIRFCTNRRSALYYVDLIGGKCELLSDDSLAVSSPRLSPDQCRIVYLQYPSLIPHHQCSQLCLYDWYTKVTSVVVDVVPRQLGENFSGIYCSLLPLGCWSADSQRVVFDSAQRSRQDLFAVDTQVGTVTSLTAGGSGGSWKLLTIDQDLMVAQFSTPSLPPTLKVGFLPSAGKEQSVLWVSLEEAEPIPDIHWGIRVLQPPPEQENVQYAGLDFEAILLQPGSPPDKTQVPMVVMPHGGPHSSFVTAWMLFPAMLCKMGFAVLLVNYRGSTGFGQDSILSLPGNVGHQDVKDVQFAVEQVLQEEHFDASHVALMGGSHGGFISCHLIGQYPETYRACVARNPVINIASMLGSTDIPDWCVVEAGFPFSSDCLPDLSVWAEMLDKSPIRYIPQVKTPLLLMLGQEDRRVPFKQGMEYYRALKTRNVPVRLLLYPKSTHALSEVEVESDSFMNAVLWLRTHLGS
Description: The assay mixture was pre-incubated at 30° C. for 15 min. After pre-incubation, 50 μl Acetyl-Met-AMC solution (0.54 mM) was added. Release of the AMC was measured at 30° C. using a NOVOstar fluorescence microplate reader (BMG) and excitation/emission wavelengths of 380/460 nm.
The IC50-values were calculated from the slopes of the progress curves using Graphit 4.0.15 (Erithacus Software, Ltd., UK).

Compound: Br.CC(=O)OCC(=O)[C@@H]1CCCN1C(=O)[C@@H](NC(=O)[C@H](C)N)C(C)C [H-Ala-Val-Pro-CH2O—CO—CH3*HBr, 2-[(Acetyloxy-methyl)carbonyl]-1-N-[(L)-Alanyl-(L)-Valinyl]-(2S)-pyrrolidine hydrobromide]
- pIC50 [1]: 3.92
- AARE IC50 [2]: no inhibition

Compound: Br.CC(C)[C@H](NC(=O)[C@H](C)N)C(=O)N1CCC[C@H]1C(=O)COC(=O)c1ccccc1 [H-Ala-Val-Pro-CO—CH2O—CO—Ph*HBr, 2-[(Benzoyloxy-methyl)carbonyl]-1-N-[{(L)-Alanyl}-(L)-Valinyl]-(2S)-pyrrolidine hydrobromide]
- pIC50 [1]: 3.50
- AARE IC50 [2]: no inhibition

Compound: Br.CC(=O)[C@@H]1CCCN1C(=O)[C@@H](NC(=O)[C@H](C)N)C(C)C [H-Ala-Val-Pro-Me*HBr, 2-Methylcarbonyl-1-N-[(L)-Alanyl-(L)-Valinyl]-(2S)-pyrrolidine hydrobromide]
- DP I IC50 [1]: no inhibition
- AARE IC50 [2]: no inhibition
